Source: patent US20250064712A1, “METHOD FOR AMPLIFYING EXPRESSION OF EPIDERMAL BARRIER FUNCTION-RELATED GENE” (J-Network, Inc., priority 2023, published 2025)

What was measured:
[1] = system: CERS3 gene; test: Test for amplification of mRNA expression of CERS3 gene (quantitative real-time PCR, GAPDH internal standard); assay type: cell-based, human; conditions: NHEKs, GDS23 50 μM, culture time 36 hr, control = 1
Description: (§1) Normal human epidermal keratinocytes (NHEKs) were seeded on a 96-well plate at a cell density of 2.0×10^4cells/well using HuMedia-KG2 medium (manufactured by Kurabo Industries Ltd.), and cultured under the conditions of 37° C. and 5% CO2 for 24 hours.
(§2) Thereafter, a diacylglycerol PEG adduct was added thereto using HuMedia-KB2 medium (manufactured by Kurabo Industries Ltd.), and each was cultured under the conditions of 37° C. and 5% CO2 for a predetermined time. Table 1 represents the target gene, the types of diacylglycerol PEG adduct added, the adding amount, and the culture time. A control (no addition) was also cultured under the same conditions.
(§3) After the cells were cultured for each predetermined time, RNA was extracted from the cells of each sample and control. The extracted RNA was reverse-transcribed to prepare cDNA, and the mRNA of the target gene was quantified by quantitative real-time PCR expression analysis. GAPDH (glyceraldehyde 3-phosphate dehydrogenase) was used as an internal standard.
(§4) In the analysis, the mRNA expression level of each target gene was corrected with the value of the expression level of GAPDH, which is an internal standard in the same sample, and the correction value of the sample was calculated as a relative expression level when the correction value of the control was set to 1.

[2] = system: PPARA gene; test: Test for amplification of mRNA expression of PPARA gene (quantitative real-time PCR, GAPDH internal standard); assay type: cell-based, human; conditions: NHEKs, GDS23 50 μM, culture time 24, 30, 36 hr, control = 1
Description: as §1, §2, §3, §4

[3] = system: Three-dimensional cultured human epidermal model; test: Hematoxylin-eosin staining and DAPI nuclear staining of epidermal model (cell abnormality check); assay type: cell-based; conditions: LabCyte EPI-MODEL24 6D, 50 μL of 2% GDS23 solution applied for 24 hours, collected 9 days after application
Description: Treatment of epidermal model Three-dimensional cultured human epidermal model (LabCyte EPI-MODEL24 6D: manufactured by Japan Tissue Engineering Co., Ltd.) was cultured in a medium (assay medium: manufactured by Japan Tissue Engineering Co., Ltd.) at 37° C. for 24 hours.
Thereafter, the medium was exchanged, and 50 μL of a sample prepared with purified water (2% preparation solution of GDS23) was applied to the surfaces of the stratum corneum, followed by continuous culture for 24 hours. The control for comparison was applied with purified water only.
Subsequently, the sample on the surface of the stratum corneum of the epidermal model was sucked up with a sterilized cotton swab to remove the excess sample, and then the epidermal model was continuously cultured without newly applying the sample on the surface of the stratum corneum, and the epidermal model was collected 9 days after the sample was applied.
After the blocking agent was aspirated, an anti-loricrin antibody (manufactured by Proteintech Japan) (diluted 50 times with a 3% BSA/PBS solution) was added to the section, and the primary antibody reaction was carried out overnight at 4° C. […]

[4] = system: SULT2B1 gene; test: Test for amplification of mRNA expression of SULT2B1 gene (quantitative real-time PCR, GAPDH internal standard); assay type: cell-based, human; conditions: NHEKs, control = 1
Description: as §1, §2, §3, §4

[5] = system: loricrin; test: Test for detecting production of loricrin, loricrin immunostaining method; assay type: cell-based, human; conditions: LabCyte EPI-MODEL24 6D, 50 μL of 2% GDS23 solution applied for 24 hours, collected 9 days after application, vs purified water control
Description: A test for detecting the production of loricrin encoded by the LOR genes was performed using two staining methods: an immunostaining method using an anti-loricrin antibody and a hematoxylin-eosin staining method.
Treatment of epidermal model Three-dimensional cultured human epidermal model (LabCyte EPI-MODEL24 6D: manufactured by Japan Tissue Engineering Co., Ltd.) was cultured in a medium (assay medium: manufactured by Japan Tissue Engineering Co., Ltd.) at 37° C. for 24 hours. […]
After the blocking agent was aspirated, an anti-loricrin antibody (manufactured by Proteintech Japan) (diluted 50 times with a 3% BSA/PBS solution) was added to the section, and the primary antibody reaction was carried out overnight at 4° C. Thereafter, a Goat Anti-Rabbit IgG H&L (Alexa Fluor (registered trademark) 488 antibody (manufactured by Abcam PLC) (diluted 250 times with a 3% BSA/PBS solution) was added thereto, and the secondary antibody reaction was carried out for 1 hour at room temperature in a dark place. And then, nuclear staining was performed with DAPI diluted 200 times with a 3% BSA/PBS solution. A fluorescence microscope (BZ-X810, KEYENCE) was then used to observe the green and blue fluorescence. The green fluorescence indicates the presence of loricrin. The blue fluorescence stains the nuclei of the epidermal model to confirm that the cells are normal.

[6] = system: LOR gene; test: Test for amplification of mRNA expression of LOR gene (quantitative real-time PCR, GAPDH internal standard); assay type: cell-based, human; conditions: NHEKs, GDM12 100 μM, culture time 30 hr, control = 1
Description: as §1, §2, §3, §4

[7] = system: IVL gene; test: Test for amplification of mRNA expression of IVL gene (quantitative real-time PCR, GAPDH internal standard); assay type: cell-based, human; conditions: NHEKs, GDM12 100 μM, culture time 30 hr, control = 1
Description: as §1, §2, §3, §4

Substance	relative expression level of CERS3 genes [1]	relative expression level of PPARA genes [2]	abnormality in the cells of the epidermal model (blue fluorescence, hematoxylin-eosin staining) [3]	relative expression level of SULT2B1 genes ([4]; GDS23 50 μM, culture time 24 hr)	production amount of loricrin in the stratum corneum (green fluorescence) [5]	relative expression level of LOR genes [6]	relative expression level of SULT2B1 genes ([4]; GDM12 100 μM, culture time 30 hr)	relative expression level of IVL genes [7]
PEG-23 glycerol distearate [GDS23]	about 2 times that of the control	about 2.2 times that of the control	no abnormality in the cells of the epidermal model	about 1.2 times that of the control	higher than that of the control epidermal model			
PEG-12 glycerol dimyristate [GDM12]						about 1.3 times that of the control	about 1.6 times that of the control	about 1.5 times that of the control
